Source: US4760136A, “Chartreusin derivatives and salts thereof” (Ishihara Sangyo Kaisha, Ltd., priority 1984, dated 1988)
Where a name gives a salt, the structure may show the parent alone. Read-outs that look alike come from different tables or passages of the source.

Experiments:
P-388 leukemia cells = experiment: Antitumor activity: P-388 leukemia cells inoculated intraperitoneally, drug administered intravenously, BDF1 mice; format: in vivo; conditions: Mus musculus, P388, iv, read-out: T/C (%) of MST; for response vs control in vivo at 20 mg/kg: dose b: 20 mg/kg × 3, i.v. on days 1, 5 and 9; for response vs control in vivo at 40 mg/kg: dose c: 40 mg/kg × 3, i.v. on days 1, 5 and 9
Procedure: Into BDF1 mice were inoculated intraperitoneally P-388 leukemia cells at a rate of 1×10^6 cells/mouse, and each drug to be tested was administered intravenously on the first, fifth and ninth days after the inoculation. […] The drugs were as follows solutions prepared by adding physiological saline to each of compound Nos. 8, 9, 10, 11, 17, 34, 42, 59, 80 and 134; suspensions prepared by dispersing each of compound Nos. 41, 78, 98, 100, 130, 191, 212, 213, 215, 227 and 230 to 232 and a small amount of sodium carboxymethyl cellulose (Na.CMC) in physiological saline, […]

[1] = Acute toxicity, intravenous (once), ddY mice; format: in vivo; conditions: mouse, in vivo, formulated per Preparation Example
Excerpt: In Table 7 are shown acute toxicity values (LD50, mg/kg) in ddY mice in the case of intravenously administering (once) each of the compounds of this invention in the form of preparations shown in the Preparation Examples shown in Table 7.

[2] = dose f: 80 mg/kg × 3, i.v. on days 1, 5 and 9, BDF1 mice, P-388 i.p.

For `CO[C@H]1[C@@H](O)[C@@H](C)O[C@H](O[C@H]2[C@H](Oc3cccc4c(OC(=O)c5ccc(Cl)cc5)c5c(=O)oc6ccc(C)c7c(=O)oc(c34)c5c67)O[C@H](C)[C@@H]3OC(c4ccccc4)O[C@@H]32)[C@@H]1O` (some centres unmarked) [compound 194], the response vs control in vivo at 20 mg/kg (P-388 leukemia cells; BDF1 mice, P-388 i.p.) was 130%, the response vs control in vivo at 40 mg/kg (P-388 leukemia cells; BDF1 mice, P-388 i.p.) was 192% and the LD50 ([1]; iv) was at least 40 mg/kg.
Work on `COC1C(O)C(C)OC(OC2C(Oc3cccc4c(OC(=O)CCNC(=O)c5ccccc5)c5c(=O)oc6ccc(C)c7c(=O)oc(c34)c5c67)OC(C)C3OC(c4ccccc4)OC32)C1O` (centres unmarked) [Compound No. 23] yielded a response vs control in vivo at 20 mg/kg (P-388 leukemia cells; BDF1 mice, P-388 i.p.) of 205%, a response vs control in vivo at 40 mg/kg (P-388 leukemia cells; BDF1 mice, P-388 i.p.) of 233% and an LD50 ([1]; iv) of at least 40 mg/kg.
`COC1C(O)C(C)OC(OC2C(Oc3cccc4c(OC(=O)C(C)CN(C)C)c5c(=O)oc6ccc(C)c7c(=O)oc(c34)c5c67)OC(C)C3OC(c4ccccc4)OC32)C1O` (stereo not drawn) [Compound No. 1, 6-O-(N,N-Dimethyl-β-Amino-Isobutyryl)-3',4'-O-Benzylidene-ChartreusinHydrochloride] showed a response vs control in vivo at 20 mg/kg (P-388 leukemia cells; BDF1 mice, P-388 i.p.) of 138%, a response vs control in vivo at 40 mg/kg (P-388 leukemia cells; BDF1 mice, P-388 i.p.) of 214% and an LD50 ([1]; iv) of at least 40 mg/kg.
Work on `C/C=C/C(=O)Oc1c2cccc(OC3OC(C)C4OC5(CCCCC5)OC4C3OC3OC(C)C(O)C(OC)C3O)c2c2oc(=O)c3c(C)ccc4oc(=O)c1c2c43` (centres unmarked) [compound 221] yielded a response vs control in vivo at 80 mg/kg (P-388 leukemia cells) of 168% and an LD50 [1] of at least 80 mg/kg.
In the case of `COc1cccc(C(=O)Oc2c3cccc(O[C@@H]4O[C@H](C)[C@@H]5OC(C)(C)O[C@@H]5[C@H]4O[C@H]4O[C@H](C)[C@H](O)[C@H](OC)[C@H]4O)c3c3oc(=O)c4c(C)ccc5oc(=O)c2c3c54)c1` [Compound No. 184], the response vs control in vivo at 40 mg/kg (P-388 leukemia cells; BDF1 mice, P-388 i.p.) is reported as 162%, the response vs control in vivo at 80 mg/kg (P-388 leukemia cells; [2]) is reported as 199% and the LD50 ([1]; iv) is reported as at least 80 mg/kg.
Work on `COC1C(O)C(C)OC(OC2C(Oc3cccc4c(OC(=O)CCC5CCCCC5)c5c(=O)oc6ccc(C)c7c(=O)oc(c34)c5c67)OC(C)C3OC(C)(C)OC32)C1O` (centres unmarked) [Compound No. 240, 6-O-(3-Cryclohexyl-Propionyl)-3',4'-O-Isopropylidene-Chartreusin] yielded a response vs control in vivo at 60 mg/kg (P-388 leukemia cells; dose e: 60 mg/kg × 3, i.v. on days 1, 5 and 9, BDF1 mice, P-388 i.p.) of 158% and an LD50 ([1]; iv) of at least 60 mg/kg.
`COC1C(O)C(C)OC(OC2C(Oc3cccc4c(OC(=O)CCNC=O)c5c(=O)oc6ccc(C)c7c(=O)oc(c34)c5c67)OC(C)C3OC(c4cccc(Br)c4)OC32)C1O` (centres unmarked) [Compound No. 54] gave a response vs control in vivo at 40 mg/kg (P-388 leukemia cells; BDF1 mice, P-388 i.p.) of 144%, a response vs control in vivo at 80 mg/kg (P-388 leukemia cells; [2]) of 208% and an LD50 ([1]; iv) of at least 80 mg/kg.
`COC1C(O)C(C)OC(OC2C(Oc3cccc4c(OC(=O)CCCCCNC(=O)C(F)(F)F)c5c(=O)oc6ccc(C)c7c(=O)oc(c34)c5c67)OC(C)C3OC(C)(C)OC32)C1O` (centres unmarked) [compound 98] gave a response vs control in vivo at 80 mg/kg (P-388 leukemia cells; [2]) of 187% and an LD50 ([1]; iv) of at least 100 mg/kg.
`C/C=C(\C)C(=O)Oc1c2cccc(OC3OC(C)C4OC(c5cccc(C(F)(F)F)c5)OC4C3OC3OC(C)C(O)C(OC)C3O)c2c2oc(=O)c3c(C)ccc4oc(=O)c1c2c43` (stereo not drawn) [Compound No. 161, 6-O-(Trans-2-Methyl-2-Butenoyl)-3',4'-O-(m-Trifluoromethylbenzylidene)Chartreusin] showed a response vs control in vivo at 40 mg/kg (P-388 leukemia cells; BDF1 mice, P-388 i.p.) of 169%, a response vs control in vivo at 80 mg/kg (P-388 leukemia cells; [2]) of 234% and an LD50 ([1]; iv) of at least 80 mg/kg.
With `COC1C(O)C(C)OC(OC2C(Oc3cccc4c(OC(=O)C(Cc5c[nH]c6ccccc56)NC(=O)OCc5ccccc5)c5c(=O)oc6ccc(C)c7c(=O)oc(c34)c5c67)OC(C)C3OC(C)(C)OC32)C1O` (centres unmarked) [compound 126] the response vs control in vivo at 80 mg/kg (P-388 leukemia cells; [2]) was 150% and the LD50 ([1]; iv) was at least 100 mg/kg.
Molecule `COC1C(O)C(C)OC(OC2C(Oc3cccc4c(OC(=O)C(Cc5ccccc5)NC(=O)OCc5ccccc5)c5c(=O)oc6ccc(C)c7c(=O)oc(c34)c5c67)OC(C)C3OC(c4ccccc4)OC32)C1O` (centres unmarked) [compound 122] has a response vs control in vivo at 40 mg/kg (P-388 leukemia cells; BDF1 mice, P-388 i.p.) of 135% and an LD50 ([1]; iv) of at least 40 mg/kg.
Work on `CCC1OC2C(C)OC(Oc3cccc4c(OC(=O)CCNC(=O)C(F)(F)F)c5c(=O)oc6ccc(C)c7c(=O)oc(c34)c5c67)C(OC3OC(C)C(O)C(OC)C3O)C2O1` (centres unmarked) [compound 100] yielded a response vs control in vivo at 80 mg/kg (P-388 leukemia cells; [2]) of 157% and an LD50 ([1]; iv) of at least 180 mg/kg.
Molecule `COC1C(O)C(C)OC(OC2C(Oc3cccc4c(OC(=O)COC(=O)CCCl)c5c(=O)oc6ccc(C)c7c(=O)oc(c34)c5c67)OC(C)C3OC(c4ccccc4)OC32)C1O` (centres unmarked) [Compound No. 149] has a response vs control in vivo at 20 mg/kg (P-388 leukemia cells; BDF1 mice, P-388 i.p.) of 203% and an LD50 ([1]; iv) of at least 40 mg/kg.
